The test system of series [1] is Mycobacterium tuberculosis H37 Rv. Description: Therapeutic effect on mice experimentally infected with tuberculosis (FIG. 1, groups of 20 mice). Particulars: oral, 200 μg/mouse, once a day, six days a week.
Text: In FIG. 1, the point, a, means the time that mice were infected, and the point, b, means the time that the treatment started.
Series [2] deals with Escherichia coli IFO 12734. Kind of series: Antibacterial activity, standard method of Japan Society of Chemotherapy (Table 2). The format is cell-based. Particulars: IFO12734, read-out: Minimal inhibitory concentration. The text has this: (§1) Derivative No. in Table 2 corresponds to derivative No. in Table 1.
Series [3] has as its system Klebsiella pneumoniae IFO 3512. The series is described as above. Format: cell-based. Particulars: IFO3512, read-out: Minimal inhibitory concentration.
Text: as §1

Series [4] relates to Staphylococcus aureus IFO 12732. The description is as above. The format is cell-based. As to conditions: IFO12732, read-out: Minimal inhibitory concentration.
Text: as §1

The test system of series [5] is Micrococcus luteus IFO 12708. The description is as above. Format: cell-based. As to conditions: IFO12708, read-out: Minimal inhibitory concentration.
Text: as §1

Series [6] has as its system Mycobacterium smegmatis ATCC 607. The series is described as above. Format: cell-based. As to conditions: Mycolicibacterium smegmatis, ATCC607, read-out: Minimal inhibitory concentration.
Text: as §1

In series [7] the test system is Bacillus subtilis IFO 3134. Described as above. Format: cell-based. Particulars: IFO3134, read-out: Minimal inhibitory concentration.
Text: as §1

Series [8] relates to Mycobacterium tuberculosis H37 Rv. Description: Antibacterial activity against a tubercle bacillus, two-fold dilution in Kirchner liquid medium. Particulars: Kirchner medium with 10% bovine serum, 37° C., 4 weeks.
For series [9] the test system is unchanged. Description: Repeated treatment test of mice infected with tuberculosis, survival on fortieth day (groups of 10 mice). Particulars: oral, 200 μg/mouse.
Series [10] is described as follows: Plasma concentration after oral administration to mice, bioassay with Micrococcus luteus IFO 12708. Particulars: mouse, 20 mg/kg. The format is in vivo, ddY male mice. As to the method:
The derivatives No. 4 and No. 11 shown in Table 1 were orally administered to ddY male mice (7 weeks), respectively, in a dose of 20 mg/kg. The concentration of the test compound in the plasma was measured by a bioassay method employing Micrococcus luteus IFO 12708 as an assay bacterium according to a usual manner. The results are as follows: As for the derivative No. 4, the concentrations in the plasma after 1 hour, 3 hours, 5 hours and 8 hours from the administration were 17.0 μg/ml, 13.3 μg/ml, 14.5 μg/ml, 4.2 μg/ml, respectively. As for the derivative No. 11, the concentrations in the plasma after 1 hour, 3 hours, 5 hours and 8 hours from the administration were 17.3 μg/ml, 16.2 μg/ml, 13.8 μg/ml and 10.1 μg/ml, respectively.

≈ marks a conversion by molar mass, not a printed value.

Regarding `CCc1c(N2CCCC2)ccc2nc3c4c5c6c(C)c(O)c4c(=O)c(c-3oc12)NC(=O)C(C)=CC=CC(C)C(O)C(C)C(O)C(C)C(OC(C)=O)C(C)C(OC)C=COC(C)(O6)C5=O` (centres unmarked) [Derivative C], the “therapeutic effect as compared with rifampicin” value in [1] is on record as “inferior to rifampicin”.
Consider `CO[C@H]1/C=C/O[C@@]2(C)Oc3c(C)c(O)c4c(O)c(c(/C=N/N5CCN(C)CC5)c(O)c4c3C2=O)NC(=O)/C(C)=C\C=C\[C@H](C)[C@H](O)[C@@H](C)[C@@H](O)[C@@H](C)[C@H](OC(C)=O)[C@@H]1C` [Rifampicin, reference compound], for which the MIC in series [2] is greater than 10 µg/mL; in series [3], 5 µg/mL (≈ 6.08 µM); in [4], no more than 0.02 µg/mL; in [5], no more than 0.02 µg/mL; in [6], 10 µg/mL (≈ 12.2 µM); in series [7], 0.08 µg/mL (≈ 0.0972 µM). For the same molecule, the Minimal inhibitory concentration in series [8] (Table 3) stood at 0.6 µg/mL (≈ 0.729 µM); in series [8] (Table 4) it was 0.3 µg/mL (≈ 0.365 µM). In addition, in [9], the Survival rate is listed as 80%.
For `COC1C=COC2(C)Oc3c(C)c(O)c4c(=O)c(c5oc6c(OC(C)C)c(N7CCN(CC(C)C)CC7)ccc6nc-5c4c3C2=O)NC(=O)C(C)=CC=CC(C)C(O)C(C)C(O)C(C)C(OC(C)=O)C1C` (centres unmarked) [Derivative No. 13], the MIC in [2] is greater than 10 µg/mL; in series [3] it was greater than 10 µg/mL; in series [4] it was 0.04 µg/mL (≈ 0.0407 µM); in series [5] it was 0.16 µg/mL (≈ 0.163 µM); in series [6] it was 1.25 µg/mL (≈ 1.27 µM); in [7], 0.16 µg/mL (≈ 0.163 µM). Besides, the Minimal inhibitory concentration in series [8] (Table 3) was 0.07 µg/mL (≈ 0.0712 µM). In [9], this molecule registered a Survival rate of 100%. For the same molecule, in series [9], the dead mice entry was “there was not observed any dead mouse”.
Turning to `CCOc1c(N2CCCC2)ccc2nc3c4c5c6c(C)c(O)c4c(=O)c(c-3oc12)NC(=O)C(C)=CC=CC(C)C(O)C(C)C(O)C(C)C(OC(C)=O)C(C)C(OC)C=COC(C)(O6)C5=O` (centres unmarked) [Derivative No. 4], the concentration at 1 h in [10] worked out at 17000 ng/mL. For the same molecule, the concentration at 3 h in [10] was found to be 13300 ng/mL. Further, the concentration at 5 h in series [10] came out at 14500 ng/mL. In series [10], this molecule showed a concentration at 8 h of 4200 ng/mL. Further, the MIC was greater than 10 µg/mL in series [2]; greater than 10 µg/mL in series [3]; no more than 0.02 µg/mL in series [4]; 0.04 µg/mL (≈ 0.0445 µM) in series [5]; 0.63 µg/mL (≈ 0.702 µM) in [6]; 0.04 µg/mL (≈ 0.0445 µM) in series [7]. Further, the Minimal inhibitory concentration in [8] (Table 3) was found to be 0.017 µg/mL (≈ 0.0189 µM). Further, the Survival rate in [9] worked out at 100%. In [9], the dead mice entry was “there was not observed any dead mouse”.
In the case of `CCOc1c(N2CCN(CC(C)C)CC2)ccc2nc3c4c5c6c(C)c(O)c4c(=O)c(c-3oc12)NC(=O)C(C)=CC=CC(C)C(O)C(C)C(O)C(C)C(OC(C)=O)C(C)C(OC)C=COC(C)(O6)C5=O` (centres unmarked) [Derivative No. 8], the MIC was greater than 10 µg/mL in [2]; greater than 10 µg/mL in series [3]; no more than 0.02 µg/mL in series [4]; no more than 0.02 µg/mL in [5]; 0.63 µg/mL (≈ 0.65 µM) in series [6]; no more than 0.02 µg/mL in series [7]. The Minimal inhibitory concentration in series [8] (Table 3) amounted to 0.07 µg/mL (≈ 0.0722 µM). Moreover, in series [1], the “therapeutic effect as compared with rifampicin and derivative A” value is reported as “excellent therapeutic effect as compared with rifampicin”.
As to `COc1c(N2CCN(CC(C)C)CC2)cc(C)c2nc3c4c5c6c(C)c(O)c4c(=O)c(c-3oc12)NC(=O)C(C)=CC=CC(C)C(O)C(C)C(O)C(C)C(OC(C)=O)C(C)C(OC)C=COC(C)(O6)C5=O` (centres unmarked) [Derivative No. 17], the MIC in series [2] was greater than 10 µg/mL; in series [3], greater than 10 µg/mL; in series [4], no more than 0.02 µg/mL; in series [5], 0.08 µg/mL (≈ 0.0825 µM); in series [6], 1.25 µg/mL (≈ 1.29 µM); in series [7], 0.04 µg/mL (≈ 0.0413 µM). In series [8] (Table 3), the Minimal inhibitory concentration was 0.07 µg/mL (≈ 0.0722 µM). The same molecule had a Survival rate in series [9] of 100%. In addition, the dead mice result in series [9] is “there was not observed any dead mouse”.
On to `COC1C=COC2(C)Oc3c(C)c(O)c4c(=O)c(c5oc6cc(N7CCCCC7)ccc6nc-5c4c3C2=O)NC(=O)C(C)=CC=CC(C)C(O)C(C)C(O)C(C)C(OC(C)=O)C1C` (centres unmarked) [Derivative B], for which the “therapeutic effect as compared with rifampicin” value in series [1] is listed as “inferior to rifampicin”.
In the case of `CCCOc1c(N2CCN(CC(C)C)CC2)ccc2nc3c4c5c6c(C)c(O)c4c(=O)c(c-3oc12)NC(=O)C(C)=CC=CC(C)C(O)C(C)C(O)C(C)C(OC(C)=O)C(C)C(OC)C=COC(C)(O6)C5=O` (centres unmarked) [Derivative No. 10], the MIC in [2] is greater than 10 µg/mL; in series [3], greater than 10 µg/mL; in series [4], 0.04 µg/mL (≈ 0.0407 µM); in series [5], 0.16 µg/mL (≈ 0.163 µM); in series [6], 1.25 µg/mL (≈ 1.27 µM); in [7] it was 0.16 µg/mL (≈ 0.163 µM). The molecule further displayed a Minimal inhibitory concentration in [8] (Table 3) of 0.07 µg/mL (≈ 0.0712 µM).
In series [10], `COC1C=COC2(C)Oc3c(C)c(O)c4c(=O)c(c5oc6c(OC(C)C)c(N7CCCC7)ccc6nc-5c4c3C2=O)NC(=O)C(C)=CC=CC(C)C(O)C(C)C(O)C(C)C(OC(C)=O)C1C` (centres unmarked) [Derivative No. 11] showed a concentration at 1 h of 17300 ng/mL. Moreover, the concentration at 3 h in [10] is 16200 ng/mL. Besides, in series [10], the concentration at 5 h worked out at 13800 ng/mL. Also, in series [10], the concentration at 8 h was 10100 ng/mL. Also, the MIC in series [2] was greater than 10 µg/mL; in series [3] it was greater than 10 µg/mL; in [4], no more than 0.02 µg/mL; in series [5], 0.04 µg/mL (≈ 0.0439 µM); in [6] it was 1.25 µg/mL (≈ 1.37 µM); in series [7], 0.08 µg/mL (≈ 0.0877 µM). This molecule also had a Minimal inhibitory concentration in series [8] (Table 3) of 0.017 µg/mL (≈ 0.0186 µM).
Take `CCOc1c(N2CCN(C(C)C)CC2)ccc2nc3c4c5c6c(C)c(O)c4c(=O)c(c-3oc12)NC(=O)C(C)=CC=CC(C)C(O)C(C)C(O)C(C)C(OC(C)=O)C(C)C(OC)C=COC(C)(O6)C5=O` (centres unmarked) [Derivative No. 7]: the MIC is 5 µg/mL (≈ 5.23 µM) in series [2]; 5 µg/mL (≈ 5.23 µM) in series [3]; no more than 0.02 µg/mL in series [4]; no more than 0.02 µg/mL in series [5]; 1.25 µg/mL (≈ 1.31 µM) in series [6]; no more than 0.02 µg/mL in [7]. Moreover, the Minimal inhibitory concentration in [8] (Table 3) came to 0.017 µg/mL (≈ 0.0178 µM).
In the case of `COc1c(N2CCN(CC(C)C)CC2)ccc2nc3c4c5c6c(C)c(O)c4c(=O)c(c-3oc12)NC(=O)C(C)=CC=CC(C)C(O)C(C)C(O)C(C)C(OC(C)=O)C(C)C(OC)C=COC(C)(O6)C5=O` (centres unmarked) [Derivative No. 3], the MIC in series [2] was greater than 10 µg/mL; in series [3] it was greater than 10 µg/mL; in series [4], no more than 0.02 µg/mL; in series [5], 0.08 µg/mL (≈ 0.0838 µM); in series [6], 1.25 µg/mL (≈ 1.31 µM); in series [7] it was 0.04 µg/mL (≈ 0.0419 µM). In series [8] (Table 3), this molecule showed a Minimal inhibitory concentration of 0.017 µg/mL (≈ 0.0178 µM).
For the molecule `CCOc1c(N2CCN(C)CC2)ccc2nc3c4c5c6c(C)c(O)c4c(=O)c(c-3oc12)NC(=O)C(C)=CC=CC(C)C(O)C(C)C(O)C(C)C(OC(C)=O)C(C)C(OC)C=COC(C)(O6)C5=O` (centres unmarked) [Derivative No. 5], the MIC in [2] is 2.5 µg/mL (≈ 2.7 µM); in series [3] it was 2.5 µg/mL (≈ 2.7 µM); in series [4] it was no more than 0.02 µg/mL; in series [5], no more than 0.02 µg/mL; in [6], 1.25 µg/mL (≈ 1.35 µM); in series [7] it was no more than 0.02 µg/mL. In series [8] (Table 3), this molecule gave a Minimal inhibitory concentration of 0.035 µg/mL (≈ 0.0378 µM).

The values are drawn from US4965261A, “Substituted benzoxazinorifamycin derivative and antibacterial agent containing the same” (Kanegafuchi Kagaku Kogyo Kabushiki Kaisha, priority 1988, dated 1990).
